Experimental data as given in patent US6946472B2, “Polycyclic compounds exhibiting anti-tumor activities” (Hoffman-La Roche Inc., priority 2002, dated 2005).

tested on: HCT116 cell line (colorectal cancer); assay: Anti-proliferative activity assay (WST-8); assay type: cell-based; details: Homo sapiens, HCT-116, 96 h; in vitro growth of HCT116, 4 days incubation, WST-8, concentration yielding 50% OD of control growth
Description: A single suspension of tumor cells was inoculated to the serially diluted 96-well microtestplate. Then the testplate was incubated in the 5% CO2 ambience at 37° C. for 4 days (2-3×10^3 cells/well). The degree of cell growth in a monolayer was measured by using WST-8 (Dojindo, Japan). IC50 values of the polycyclic compounds directed against tumor cells were calculated as the concentration of drug yielding 50% OD of the control growth.
The anti-tumor activity of polycyclic compounds of the formula [I] against in vitro growth of HCT116 cell line (colorectal cancer) is summarized in Table 1.

SMILES | IC50
CN(CCCN(C)CCNc1nc2ccccc2c2c1C(=O)c1cnccc1-2)CCNc1nc2ccccc2c2c1C(=O)c1cnccc1-2 [Example 5, 6-{2-[methyl-(3-{methyl-[2-(7-oxo-7H-5,9-diaza-benzo[c]fluoren-6-ylamino)-ethyl]-amino}-propyl)-amino]-ethylamino}-5,9-diaza-benzo[c]fluoren-7-one] | 0.64 nM
CN(CCCN(C)CCNc1nc2ccccc2c2c1C(=O)c1ccncc1-2)CCNc1nc2ccccc2c2c1C(=O)c1ccncc1-2 [Example 10, 6-{2-[methyl-(3-{methyl-[2-(7-oxo-7H-5,10-diaza-benzo[c]fluoren-6-ylamino)-ethyl]-amino}-propyl)-amino]-ethylamino}-5,10-diaza-benzo[c]fluoren-7-one] | 0.3 nM
COc1ccc2c3c(c(NCCN(C)CCCN(C)CCNc4nc5ccccc5c5c4C(=O)c4cnccc4-5)nc2c1)C(=O)c1cnccc1-3 [Example 16, 3-methoxy-6-{2-[methyl-(3-{methyl-[2-(7-oxo-7H-5,9-diaza-benzo[c]fluoren-6-ylamino)-ethyl]-amino}-propyl)-amino]-ethylamino}-5,9-diaza-benzo[c]fluoren-7-one] | 0.08 nM
CN(C)CCNc1nc2cc(O)ccc2c2c1C(=O)c1ccccc1-2 [Reference compound, 6-(2-dimethylamino-ethylamino)-3-hydroxy-7H-indeno[2,1-c]quinolin-7-one, reference compound] | 12 nM

Continued, values first:

IC50 | SMILES
0.13 nM | CN(CCCN(C)CCNc1nc2ccccc2c2c1C(=O)c1ccncc1-2)CCNc1nc2ccccc2c2c1C(=O)c1cnccc1-2 [Example 15, 6-{2-[methyl-(3-{methyl-[2-(7-oxo-7H-5,10-diaza-benzo[c]fluoren-6-ylamino)-ethyl]-amino}-propyl)-amino]-ethylamino}-5,9-diaza-benzo[c]fluoren-7-one]
0.02 nM | CN(CCCN(C)CCNc1nc2cc(Cl)ccc2c2c1C(=O)c1cnccc1-2)CCNc1nc2cc(Cl)ccc2c2c1C(=O)c1cnccc1-2 [Example 6, 3-chloro-6-{2-[(3-{[2-(3-chloro-7-oxo-7H-5,9-diaza-benzo[c]fluoren-6-ylamino)-ethyl]-methyl-amino}-propyl)-methyl-amino]-ethylamino}-5,9-diaza-benzo[c]fluoren-7-one]
